From patent publication US9133140B2, “Cycloalkylamne derivatives” (Daiichi Sankyo Company, Limited, priority 2008, dated 2015)
Structures can show the parent of a compound that is named as a salt. Where two headings read alike, the source gives them in different places.

What was measured:
[1] = system: calcium ion concentration in the blood; test: Measurement test for concentration of parathyroid hormone and calcium ion in rat blood; assay type: in vivo; settings: read-out: reduction of calcium concentration in the blood
Description: Three male SD rats (manufactured by Japan SLC, Inc.) were orally administered with the test compound, and effects on the concentration of parathyroid hormone (PTH) in the blood and concentration of the calcium ion in the blood were studied.
The test compound was administered by dissolving or suspending it in a 0.5% methyl cellulose 400 (MC) solution or 0.5% MC solution containing 10% of ethanol. (In addition, Compound A used in Test Example 1 was administered as a MC suspension by dosage of 30 mg/kg, and was studied as a comparative example.) Blood was collected from the jugular vein under anesthesia with halothane or isoflurane, before administration of the test compound, and 2, 4, 6 or 8 and 24 hours after administration. Calcium ion concentration in the blood was measured using cartridge EG7+(manufactured by Fuso Chemical Co., Ltd.) and i-STAT 300F (manufactured by Fuso Chemical Co., Ltd.). In addition, plasma intact PTH concentration was measured using Rat intact PTH ELISA kit (manufactured by Immutopics).
The transition of calcium ion concentration in the blood over time from before administration to 24 hours after administration of each of the test compounds was plotted, and the decrease in calcium ion concentration in the blood from the value before administration was calculated as an area value.

human CaSR = biological target: T1, human CaSR (Homo sapiens, UniProt P41180); test: Human CaSR activity measurement test (intracellular calcium in TT cells); assay type: cell-based; settings: [EC50 of test compound]/[EC50 of Compound A], intracellular calcium fluorescence
T1 construct: TT cells are cell lines that express human CaSR; endogenous in cells; host or cells: TT cells (human medullary thyroid carcinoma cell line)
T1 sequence (P41180 20-1078): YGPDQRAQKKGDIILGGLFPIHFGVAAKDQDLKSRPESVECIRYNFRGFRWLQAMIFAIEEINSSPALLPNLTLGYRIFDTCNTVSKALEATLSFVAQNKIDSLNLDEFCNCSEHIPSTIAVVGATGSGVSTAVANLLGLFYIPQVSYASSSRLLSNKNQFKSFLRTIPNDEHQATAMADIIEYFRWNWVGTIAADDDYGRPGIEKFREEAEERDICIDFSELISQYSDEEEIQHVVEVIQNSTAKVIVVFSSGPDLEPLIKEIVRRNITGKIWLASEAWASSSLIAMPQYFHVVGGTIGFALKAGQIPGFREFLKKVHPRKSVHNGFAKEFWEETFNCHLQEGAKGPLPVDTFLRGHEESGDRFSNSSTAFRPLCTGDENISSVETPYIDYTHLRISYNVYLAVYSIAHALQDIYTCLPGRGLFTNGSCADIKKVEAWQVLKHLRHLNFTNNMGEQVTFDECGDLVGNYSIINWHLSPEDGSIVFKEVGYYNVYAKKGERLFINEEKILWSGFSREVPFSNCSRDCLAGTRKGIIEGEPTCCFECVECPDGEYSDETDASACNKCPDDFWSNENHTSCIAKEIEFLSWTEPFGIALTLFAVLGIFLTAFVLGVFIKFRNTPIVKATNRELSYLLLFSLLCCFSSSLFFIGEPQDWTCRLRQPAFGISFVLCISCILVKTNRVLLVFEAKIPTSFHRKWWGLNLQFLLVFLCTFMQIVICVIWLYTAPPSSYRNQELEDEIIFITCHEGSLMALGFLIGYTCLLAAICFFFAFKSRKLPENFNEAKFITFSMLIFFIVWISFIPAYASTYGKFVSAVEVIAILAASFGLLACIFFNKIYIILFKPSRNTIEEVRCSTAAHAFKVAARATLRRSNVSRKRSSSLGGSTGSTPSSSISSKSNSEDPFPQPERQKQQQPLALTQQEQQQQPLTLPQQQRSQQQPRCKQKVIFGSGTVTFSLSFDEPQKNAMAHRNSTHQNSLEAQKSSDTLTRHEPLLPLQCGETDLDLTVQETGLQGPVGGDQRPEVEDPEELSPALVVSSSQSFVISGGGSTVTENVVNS
Description: It is reported that human medullary thyroid carcinoma cell lines TT cells are cell lines that express human CaSR, and when CaSR is activated by extracellular calcium ions or the like, intracellular calcium ion concentration increases (Endocrinology 137: 3842-3848, 1996). Accordingly, an activating action of the test compounds with respect to human CaSR was evaluated by using the change in intracellular calcium concentration of TT cells as an indicator. TT cells were inoculated onto a black well/clear bottom 96 well plate (poly-D-lysine coat: manufactured by BD biosciences), and were cultured for approximately 24 hours in a F-12 Nutrient Mixture (Kaighn's modification) culture media containing 10% calf serum and 0.5% antibiotic antimycotic. […] Then, the plate was allowed to stand for 1 hour at 37° C. Subsequently, the above-mentioned plate was placed onto FlexStation (manufactured by Molecular Device) or FlexStation 3 (manufactured by Molecular Device), and fluorescence intensity before and after treatment with the test compound dissolved in a buffer for measurement (126 mM NaCl, 4 mM KCl, 1 mM MgCl2, 20 mM HEPES (pH 7.4), 5.6 mM glucose, 2 mM CaCl2) was measured. […] Nagano, Pharmacol. […] WO 1996/12697) as a comparative compound, by conducting a similar procedure. From the following equation, the human CaSR activity of each of the test compounds was calculated as the relative activity with respect to Compound A. Relative activity with respect to Compound A=[EC50 of test compound]/[EC50 of Compound A]

[2] = male SD rats, oral, 10 mg/kg, 4 hours after administration
[3] = male SD rats, oral, 4 hours after administration

Compound	Relative activity with respect to Compound A (human CaSR)	inhibition in vivo at 10 mg/kg [1, 2]	inhibition in vivo at 0.3 mg/kg [1, 3]	inhibition in vivo at 10 mg/kg ([1]; po, 4 h)
C[C@@H](N[C@H]1CC[C@@H](c2ccc(OC(C)(C)C(=O)O)cc2)C1)c1cccc2ccccc12 [Example 11, 2-Methyl-2-{4-[(1R,3S)-3-{[(1R)-1-(naphthalen-1-yl)ethyl]amino}cyclopentyl]phenoxy}propanoic acid hydrochloride]	0.60	≥ 30%	–	–
C[C@@H](N[C@H]1CC[C@@H](c2ccc(OC(C)(C)C(=O)O)c(F)c2)C1)c1cccc2ccccc12 [Example 15, 2-{2-Fluoro-4-[(1R,3S)-3-{[(1R)-1-(naphthalen-1-yl)ethyl]amino}cyclopentyl]phenoxy}-2-methylpropanoic acid hydrochloride]	0.38	≥ 30%	–	–
C[C@@H](N[C@H]1CC[C@@H](c2ccc(OCC(=O)O)cc2)C1)c1ccc(F)c2ccccc12 [Example 17, {4-[(1R,3S)-3-{[(1R)-1-(4-Fluoronaphthalen-1-yl)ethyl]amino}cyclopentyl]phenoxy}acetic acid]	0.30	≥ 30%	≥ 20%	–
C[C@@H](NC1CC[C@@H](c2ccc(OCC(=O)O)cc2)C1)c1cccc2cc(F)ccc12 (stereo partly drawn) [Example 21, {4-[(1R)-3-{[(1R)-1-(6-Fluoronaphthalen-1-yl)ethyl]amino}cyclopentyl]phenoxy}acetic acid]	0.38	≥ 30%	–	–
C[C@@H](N[C@H]1CC[C@@H](c2cccc(CC(=O)O)c2)C1)c1ccc(F)c2ccccc12 [Example 24, {3-[(1R,3S)-3-{[(1R)-1-(4-Fluoronaphthalen-1-yl)ethyl]amino}cyclopentyl]phenyl}acetic acid hydrochloride]	0.30	≥ 30%	≥ 20%	–
C[C@@H](N[C@H]1CC[C@@H](c2ccc(NCC(=O)O)cc2)C1)c1cccc2ccccc12 [Example 33, N-{4-[(1R,3S)-3-{[(1R)-1-(Naphthalen-1-yl)ethyl]amino}cyclopentyl]phenyl}glycine 0.4 hydrochloride]	0.23	–	–	≥ 30%
C[C@@H](N[C@H]1CC[C@@H](c2ccc(NCCC(=O)O)cc2)C1)c1cccc2ccccc12 [Example 34, N-{4-[(1R,3S)-3-{[(1R)-1-(Naphthalen-1-yl)ethyl]amino}cyclopentyl]phenyl}-β-alanine 0.5 hydrochloride]	0.26	–	–	≥ 30%

Continued, in another order:

Relative activity with respect to Compound A (human CaSR)	Compound	inhibition in vivo at 10 mg/kg [1, 2]	inhibition in vivo at 0.3 mg/kg [1, 3]	inhibition in vivo at 10 mg/kg ([1]; po, 4 h)
0.34	C[C@@H](N[C@H]1CC[C@@H](c2ccc(CC(=O)O)cc2)C1)c1ccc(F)c2ccccc12 [Example 25, {4-[(1R,3S)-3-{[(1R)-1-(4-Fluoronaphthalen-1-yl)ethyl]amino}cyclopentyl]phenyl}acetic acid hydrochloride]	≥ 30%	≥ 20%	–
0.59	C[C@@H](N[C@H]1CC[C@@H](c2ccc(CCC(=O)O)cc2)C1)c1ccc(F)c2ccccc12 [Example 27, 3-{4-[(1R,3S)-3-{[(1R)-1-(4-Fluoronaphthalen-1-yl)ethyl]amino}cyclopentyl]phenyl}propanoic acid hydrochloride]	–	≥ 20%	–
0.17	C[C@@H](N[C@H]1CC[C@H](c2ccc(OCC(=O)O)cc2)C1)c1ccc(F)c2ccccc12 [Example 28, {4-[(1S,3S)-3-{[(1R)-1-(4-Fluoronaphthalen-1-yl)ethyl]amino}cyclopentyl]phenoxy}acetic acid]	–	≥ 20%	–
0.31	C[C@@H](N[C@H]1CC[C@H](c2ccc(CCC(=O)O)cc2)C1)c1ccc(F)c2ccccc12 [Example 30, 3-{4-[(1S,3S)-3-{[(1R)-1-(4-Fluoronaphthalen-1-yl)ethyl]amino}cyclopentyl]phenyl}propanoic acid hydrochloride]	–	≥ 20%	–
0.36	C[C@@H](N[C@H]1CC[C@@H](c2ccc(OC(C)(C)C(=O)O)cc2)C1)c1ccc(F)c2ccccc12 [Example 31, 2-{4-[(1R,3S)-3-{[(1R)-1-(4-Fluoronaphthalen-1-yl)ethyl]amino}cyclopentyl]phenoxy}-2-methylpropanoic acid hydrochloride]	≥ 30%	≥ 20%	–
0.15	C[C@@H](N[C@H]1CC[C@@H](c2ccc(SCC(=O)O)cc2)C1)c1cccc2ccccc12 [Example 36, ({4-[(1R,3S)-3-{[(1R)-1-(Naphthalen-1-yl)ethyl]amino}cyclopentyl]phenyl}thio)acetic acid hydrochloride]	≥ 30%	–	–
